The values below come from publication PMC6421704 (Journal of Experimental & Clinical Cancer Research : CR, 2019).

The test system of series [1] is HepG2 cell line tumor xenografts. The series is described as follows: HepG2 xenograft tumor model in nude mice. The conditions noted are these: Crizotinib (16 mg/kg) or GNF-5837 (16 mg/kg) alone or combined, intraperitoneally, 3 weeks. The format is in vivo.
Experimental: First, 2 × 10^6 HepG2 cells, 4 × 10^6 MHCC 97H cells, 4 × 10^6MHCC 97 L cells, 2 × 10^6 A549 cells, or 5 × 10^6 SMMC-7721 cells in a volume of 200 μl PBS were inoculated subcutaneously in the right flank of each mouse. Tumor growth was measured using vernier calipers, and tumor volume (mm^3) was calculated as (L × W × H)/2. When the mean tumor volume reached 200 mm^3, the mice were randomized into four groups and treatment was initiated. […] Tumor volume were recorded every 3 days until the study was terminated. The mice were sacrificed after 21 days of treatment.
The inhibition rate was calculated.
The tumor weights were measured, and the inhibition rate was calculated. Data are shown as the mean ± S.D. and are representative of three independent experiments. **p < 0.01, ***p < 0.001
The next series deals with TrkB signaling. As to the kind of experiment: BDNF-induced TrkB signaling in HepG2 cells (Western blot). It counts as cell-based, human. Particulars: HepG2, Crizotinib (0.5 μM) pretreated 2 h, BDNF 50 ng/ml. Background: A western blot detects proteins with antibodies after separation by electrophoresis.
The test system of the next series is HepG2 cells. As to the kind of experiment: HepG2 cell growth with Crizotinib and GNF-5837. Particulars: Homo sapiens, read-out: growth inhibition rate. The format is cell-based. As for the experimental part: The inhibition rate was calculated (right panel).
The test system of the next series is c-Met signaling pathway. As to the kind of experiment: HGF-induced c-Met signaling pathway activation in HepG2 cells (Western blot). The conditions noted are these: HepG2, GNF-5837 (4 μM) pretreated 2 h, HGF 20 ng/ml.
Series [2] relates to MHCC97H orthotopic tumors. The conditions noted are these: 50 mg/kg Sorafenib once daily by oral gavage.
Text: For the orthotopic xenograft mouse model, MHCC97H cells were inoculated subcutaneously in the right flank of each SCID mouse. When the tumor volumes reached approximately 1 cm^3, the mice were sacrificed, and the tumors were isolated and cut into 1 mm^3 pieces. The mice were anesthetized by an intraperitoneal injection of 1% sodium pentobarbital solution. A 1-cm longitudinal skin incision was made on the right upper axillary region of the abdomen of the mouse, the peritoneum was opened and the liver was exposed. The liver was punctured by a needle, and a 1 mm^3 tumor piece was implanted. The liver was put back into the abdominal cavity gently, and the surgical opening was closed using a 5–0 surgical suture.
The tumor weights were measured (b). […] Tumor-bearing mice were sacrificed when they became moribund.
The nature of series [3]: Body weight in liver orthotopic mouse model. The format is in vivo, mice. The conditions noted are these: sorafenib treatment, mice.

Experimental for TrkB signaling: Data are shown as the mean ± S.D. and are representative of three independent experiments. ** p < 0.01, *** p < 0.001.
(b) HepG2 cells were treated with BDNF (10 ng/ml) alone or BDNF (10 ng/ml) and HGF (10 ng/ml) for the indicated time and the activation of TrkB signaling pathway was examined. […] The activation of the TrkB and c-Met signaling pathways were examined. […] The activation of the TrkB and c-Met signaling pathways were examined. […] Data are shown as the mean ± S.D. and are representative of three independent experiments. **p < 0.01, ***p < 0.001
(§1) For western blots, cells were lysed with M-PER? Mammalian Protein Extraction Reagent (Pierce, Rockford, IL, USA). Then, western blot analysis was performed according to standard procedures. Chemiluminescent detection was conducted using supersignal substrate (Pierce) according to the manufacturer’s specifications.
Experimental for c-Met signaling pathway: (a) HepG2 cells were treated with HGF (10 ng/ml) alone or HGF (10 ng/ml) and BDNF (10 ng/ml) for the indicated time and the activation of c-Met signaling pathway was examined.
as §1

In the case of `C[C@@H](Oc1cc(-c2cnn(C3CCNCC3)c2)cnc1N)c1c(Cl)ccc(F)c1Cl` [Crizotinib], in series [1], the “inhibition rate (tumor weight)” value was 28%. In addition, the “BDNF-induced TrkB signaling pathway activation” value with TrkB signaling is listed as “significant attenuation”. Further, in the series with HepG2 cells (HepG2, 100 nM Crizotinib, 48 h), the inhibition at 0.1 µM worked out at 30%.

Regarding `Cc1ccc(NC(=O)Nc2cc(C(F)(F)F)ccc2F)cc1Nc1ccc2c(c1)NC(=O)/C2=C\c1ccc[nH]1` [GNF-5837], the “inhibition rate (tumor weight)” value in series [1] was 21%. Further, the inhibition at 2 µM with HepG2 cells (HepG2, 2 μM GNF-5837, 48 h) was found to be 14%. The “HGF-induced c-Met signaling pathway activation” value with c-Met signaling pathway is recorded as “suppressed”.

As for `CNC(=O)c1cc(Oc2ccc(NC(=O)Nc3ccc(Cl)c(C(F)(F)F)c3)cc2)ccn1` [Sorafenib, reference compound], in series [2], the survival rate was 44%. Also, in series [3], the body weight loss result is reported as “up to 10%”.

The term inhibition denotes the relative decrease from the control value, in per cent.
